Measured values published in patent publication US9944639B2, “Quinolizinone derivatives as PI3K inhibitors” (Lupin Limited, priority 2014, dated 2018).

Each compound was assayed against T1, PI3Kδ (Homo sapiens, UniProt O00329) (assay: Cell Based Assay for PI3Kδ (AKT phosphorylation, AlphaScreen SureFire, anti-IgM stimulated Raji cells)). Settings: compounds 1 h, anti-IgM (3 μg/mL) 30 min, phosphorylation of AKT, read-out: PI3Kδ inhibition IC50.
T1 construct: endogenous in cells; host or cells: Raji cells
Procedure: [formula] C) Cell Based Assay for PI3Kδ
Raji cells were maintained in RPMI-1640 (Sigma) supplemented with 10% fetal bovine serum (heat inactivated) (FBS, Sigma), 100 U penicillin/mL, and […] streptomycin and incubated at 37° C. and 5% CO2. Cells were centrifuged and resuspended in a complete medium. The required numbers of cells were transferred to a tissue culture flask containing medium without serum for 1 h at 37° C., 5% CO2. Following 1 h serum starvation, cells were centrifuged and resuspended in Hank's Balanced Salt Solution (HBSS, Sigma) and seeded in at a density of 1 million cells/well in 96-well clear bottom plates. The cells were treated with test compounds for 1 h at 37° C., 5% CO2. Cells were then stimulated with anti-IgM (3 μg/mL) for 30 min. After Stimulation, cells were lysed with 15 μL of 5× lysis buffer and the plate was shaken on an orbital plate shaker at approximately 300 rpm for 10 min. AlphaScreen® SureFire® Cell-based Assay (Perkin-Elmer, Waltham, Mass., USA) was performed to measure phosphorylation of AKT, in the cells according to the manufacturer's instructions. The luminescence was measured using an alpha technology-compatible plate reader BMG Labtech, Germany) at 520-620 nm. Percentage inhibition was calculated according to formula: […]
IC50 values were calculated by plotting % inhibition against the respective concentrations of test compounds using GraphPad Prism 5.

T1 sequence (O00329 whole entry): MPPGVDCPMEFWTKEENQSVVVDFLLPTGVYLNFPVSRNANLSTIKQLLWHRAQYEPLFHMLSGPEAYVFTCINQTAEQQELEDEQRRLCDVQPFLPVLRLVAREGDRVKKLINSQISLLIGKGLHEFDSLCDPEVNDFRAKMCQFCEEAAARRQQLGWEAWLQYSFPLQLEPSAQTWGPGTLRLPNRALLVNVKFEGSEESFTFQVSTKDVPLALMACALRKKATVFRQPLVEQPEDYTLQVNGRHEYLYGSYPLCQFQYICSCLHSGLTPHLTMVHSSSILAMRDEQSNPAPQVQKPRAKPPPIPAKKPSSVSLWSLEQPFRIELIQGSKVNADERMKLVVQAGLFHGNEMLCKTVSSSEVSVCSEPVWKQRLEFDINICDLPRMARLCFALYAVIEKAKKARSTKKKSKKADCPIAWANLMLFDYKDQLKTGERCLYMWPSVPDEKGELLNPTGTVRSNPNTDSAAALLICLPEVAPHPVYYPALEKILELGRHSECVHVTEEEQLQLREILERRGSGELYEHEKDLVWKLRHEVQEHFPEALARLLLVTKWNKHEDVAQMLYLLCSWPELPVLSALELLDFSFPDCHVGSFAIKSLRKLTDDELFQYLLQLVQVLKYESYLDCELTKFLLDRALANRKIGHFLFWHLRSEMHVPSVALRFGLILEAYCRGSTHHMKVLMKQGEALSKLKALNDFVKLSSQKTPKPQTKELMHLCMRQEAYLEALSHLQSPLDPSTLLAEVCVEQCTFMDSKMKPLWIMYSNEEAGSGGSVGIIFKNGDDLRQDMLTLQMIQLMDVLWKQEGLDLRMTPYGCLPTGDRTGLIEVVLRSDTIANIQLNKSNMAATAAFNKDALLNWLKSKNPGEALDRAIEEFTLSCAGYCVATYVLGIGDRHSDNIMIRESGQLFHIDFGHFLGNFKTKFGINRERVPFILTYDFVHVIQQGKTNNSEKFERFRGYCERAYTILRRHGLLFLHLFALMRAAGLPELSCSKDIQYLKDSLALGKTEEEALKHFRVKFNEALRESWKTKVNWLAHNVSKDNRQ
T1 sequence (P27986 whole entry partner): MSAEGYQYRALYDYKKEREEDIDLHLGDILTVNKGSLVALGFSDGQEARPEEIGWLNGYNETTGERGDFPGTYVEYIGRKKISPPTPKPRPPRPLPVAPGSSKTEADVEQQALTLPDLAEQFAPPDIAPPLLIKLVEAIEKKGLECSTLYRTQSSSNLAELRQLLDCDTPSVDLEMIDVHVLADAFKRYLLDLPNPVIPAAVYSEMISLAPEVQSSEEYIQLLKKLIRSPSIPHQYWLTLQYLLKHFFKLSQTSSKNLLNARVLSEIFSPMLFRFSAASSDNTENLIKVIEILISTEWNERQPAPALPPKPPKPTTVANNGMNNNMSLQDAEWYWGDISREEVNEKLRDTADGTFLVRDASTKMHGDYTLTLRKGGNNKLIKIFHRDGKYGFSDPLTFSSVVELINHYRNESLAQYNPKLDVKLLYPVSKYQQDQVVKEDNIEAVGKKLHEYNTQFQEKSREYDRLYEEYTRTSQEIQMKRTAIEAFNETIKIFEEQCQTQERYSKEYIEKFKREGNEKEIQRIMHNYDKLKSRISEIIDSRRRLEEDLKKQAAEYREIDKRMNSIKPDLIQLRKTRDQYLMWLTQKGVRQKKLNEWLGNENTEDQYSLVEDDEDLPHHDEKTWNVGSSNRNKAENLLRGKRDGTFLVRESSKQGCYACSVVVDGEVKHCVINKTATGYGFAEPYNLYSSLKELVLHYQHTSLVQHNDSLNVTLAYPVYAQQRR

| Structure (SMILES) | IC50 [nM] |
| --- | --- |
| C[C@H](Nc1nc(N)ncc1C#N)c1cc2ccc(F)cn2c(=O)c1-c1cccc(F)c1 (single isomer, unassigned) [Compound 20a, 2-Amino-4-((1-(7-fluoro-3-(3-fluorophenyl)-4-oxo-4H-quinolizin-2-yl)ethyl)amino)pyrimidine-5-carbonitrile] | 11 to 50 |
| CC[C@H](Nc1ncnc(N)c1C#N)c1cc2ccc(F)cn2c(=O)c1-c1ccccc1 (single isomer, unassigned) [Compound 41a, 4-Amino-6-((1-(7-fluoro-4-oxo-3-phenyl-4H-quinolizin-2-yl)propyl)amino)pyrimidine-5-carbonitrile] | 11 to 50 |
| CC[C@H](Nc1ncnc(N)c1C#N)c1cc2ccc(F)cn2c(=O)c1-c1cccc(F)c1 (single isomer, unassigned) [Compound 44a, 4-Amino-6-((1-(7-fluoro-3-(3-fluorophenyl)-4-oxo-4H-quinolizin-2-yl)propyl)amino)pyrimidine-5-carbonitrile] | 11 to 50 |
| CC[C@H](Nc1nc(N)nc2[nH]cnc12)c1cc2ccc(F)cn2c(=O)c1-c1cccc(F)c1 (single isomer, unassigned) [Compound 47b, 2-(1-((2-amino-9H-purin-6-yl)amino)propyl)-7-fluoro-3-(3-fluorophenyl)-4H-quinolizin-4-one] | 11 to 50 |
| C[C@@H](c1cc2ccc(F)cn2c(=O)c1-c1ccccc1)n1nc(-c2cc(F)cc(NS(C)(=O)=O)c2)c2c(N)ncnc21 (single isomer, unassigned) [Compound 58a, N-(3-(4-amino-1-(1-(7-fluoro-4-oxo-3-phenyl-4H-quinolizin-2-yl)ethyl)-1H-pyrazolo[3,4-d]pyrimidin-3-yl)-5-fluorophenyl)methanesulfonamide] | 11 to 50 |
| COc1ccc(-c2nn([C@@H](C)c3cc4ccc(F)cn4c(=O)c3-c3ccccc3)c3ncnc(N)c23)cn1 (single isomer, unassigned) [Compound 64a, 2-(1-(4-amino-3-(6-methoxypyridin-3-yl)-1H-pyrazolo[3,4-d]pyrimidin-1-yl)ethyl)-7-fluoro-3-phenyl-4H-quinolizin-4-one] | 11 to 50 |
| Cc1cc(F)cc(-c2c([C@H](C)Nc3ncnc(N)c3C#N)cc3ccc(F)cn3c2=O)c1 [Compound 29, (S)-4-amino-6-((1-(7-fluoro-3-(3-fluoro-5-methylphenyl)-4-oxo-4H-quinolizin-2-yl)ethyl)amino)pyrimidine-5-carbonitrile] | 11 to 50 |
| Cc1cccc(-c2c([C@H](C)Nc3ncnc(N)c3C#N)cc3ccc(F)cn3c2=O)c1 [Compound 31, (S)-4-amino-6-((1-(7-fluoro-4-oxo-3-(m-tolyl)-4H-quinolizin-2-yl)ethyl)amino)pyrimidine-5-carbonitrile] | 11 to 50 |
| C[C@H](Nc1ncnc(N)c1C#N)c1cc2ccc(F)cn2c(=O)c1-c1cccc(OC(F)(F)F)c1 [Compound 34, (S)-4-amino-6-((1-(7-fluoro-4-oxo-3-(3-(trifluoromethoxy)phenyl)-4H-quinolizin-2-yl)ethyl)amino)pyrimidine-5-carbonitrile] | 11 to 50 |
| C[C@H](Nc1ncnc(N)c1C#N)c1cc2ccc(F)cn2c(=O)c1-c1ccc(F)cc1 [Compound 36, (S)-4-amino-6-((1-(7-fluoro-3-(4-fluorophenyl)-4-oxo-4H-quinolizin-2-yl)ethyl)amino)pyrimidine-5-carbonitrile] | 11 to 50 |
| C[C@H](Nc1ncnc2[nH]cnc12)c1cc2ccc(F)cn2c(=O)c1-c1cc(F)cc(F)c1 [Compound 50, (S)-2-(1-((9H-purin-6-yl)amino)ethyl)-3-(3,5-difluorophenyl)-7-fluoro-4H-quinolizin-4-one] | 11 to 50 |

Second part, the compound after the results:

| IC50 [nM] | Structure (SMILES) |
| --- | --- |
| 11 to 50 | Cc1cccc2cc([C@H](C)Nc3ncnc(N)c3C#N)c(-c3ccc(F)c(F)c3)c(=O)n12 (single isomer, unassigned) [Compound 19a, 4-Amino-6-((1-(3-(3,4-difluorophenyl)-6-methyl-4-oxo-4H-quinolizin-2-yl)ethyl)amino)pyrimidine-5-carbonitrile] |
| 0.1 to 10 | Cc1nc(N)nc(N[C@@H](C)c2cc3ccc(F)cn3c(=O)c2-c2cccc(F)c2)c1C#N (single isomer, unassigned) [Compound 21a, 2-Amino-4-((1-(7-fluoro-3-(3-fluorophenyl)-4-oxo-4H-quinolizin-2-yl)ethyl)amino)-6-methylpyrimidine-5-carbonitrile] |
| 0.1 to 10 | Cc1c(F)ccc2cc([C@H](C)Nc3ncnc(N)c3C#N)c(-c3cccc(F)c3)c(=O)n12 (single isomer, unassigned) [Compound 23a, 4-Amino-6-((1-(7-fluoro-3-(3-fluorophenyl)-6-methyl-4-oxo-4H-quinolizin-2-yl)ethyl)amino)pyrimidine-5-carbonitrile] |
| 0.1 to 10 | Cc1c(F)ccc2cc([C@H](C)Nc3ncnc4[nH]cnc34)c(-c3ccccc3)c(=O)n12 (single isomer, unassigned) [Compound 24a, 2-(1-((9H-purin-6-yl)amino)ethyl)-7-fluoro-6-methyl-3-phenyl-4H-quinolizin-4-one] |
| 0.1 to 10 | CC[C@H](Nc1nc(N)nc(N)c1C#N)c1cc2ccc(F)cn2c(=O)c1-c1ccccc1 (single isomer, unassigned) [Compound 42a, 2,4-diamino-6-((1-(7-fluoro-4-oxo-3-phenyl-4H-quinolizin-2-yl)propyl)amino)pyrimidine-5-carbonitrile] |
| 0.1 to 10 | CC[C@H](Nc1nc(N)nc(N)c1C#N)c1cc2ccc(F)cn2c(=O)c1-c1cccc(F)c1 (single isomer, unassigned) [Compound 45a, 2,4-diamino-6-((1-(7-fluoro-3-(3-fluorophenyl)-4-oxo-4H-quinolizin-2-yl)propyl)amino)pyrimidine-5-carbonitrile] |
| 0.1 to 10 | COc1ncc(-c2nn([C@@H](C)c3cc4ccc(F)cn4c(=O)c3-c3ccccc3)c3ncnc(N)c23)cc1NS(C)(=O)=O (single isomer, unassigned) [Compound 67a, N-(5-(4-amino-1-(1-(7-fluoro-4-oxo-3-phenyl-4H-quinolizin-2-yl)ethyl)-1H-pyrazolo[3,4-d]pyrimidin-3-yl)-2-methoxypyridin-3-yl)methanesulfonamide] |
| 0.1 to 10 | C[C@H](Nc1ncnc2[nH]cc(C#N)c12)c1cc2ccc(F)cn2c(=O)c1-c1ccccc1 [Compound 28, (S)-4-((1-(7-fluoro-4-oxo-3-phenyl-4H-quinolizin-2-yl)ethyl)amino)-7H-pyrrolo[2,3-d]pyrimidine-5-carbonitrile] |
| 0.1 to 10 | C[C@H](Nc1nc(N)nc2[nH]cnc12)c1cc2ccc(F)cn2c(=O)c1-c1ccccc1 [Compound 33, (S)-2-(1-((2-amino-9H-purin-6-yl)amino)ethyl)-7-fluoro-3-phenyl-4H-quinolizin-4-one] |
| 0.1 to 10 | C[C@H](Nc1ncnc2[nH]cc(F)c12)c1cc2ccc(F)cn2c(=O)c1-c1ccccc1 [Compound 40, (S)-7-fluoro-2-(1-((5-fluoro-7H-pyrrolo[2,3-d]pyrimidin-4-yl)amino)ethyl)-3-phenyl-4H-quinolizin-4-one] |
| 0.1 to 10 | C[C@H](Nc1ncnc(N)c1C#N)c1cc2ccc(F)cn2c(=O)c1-c1cc(F)cc(F)c1 [Compound 48, (S)-4-amino-6-((1-(3-(3,5-difluorophenyl)-7-fluoro-4-oxo-4H-quinolizin-2-yl)ethyl)amino)pyrimidine-5-carbonitrile] |
